Laboratory results taken from US20210052566A1, “METHODS FOR TREATING HEPATITIS B VIRUS (HBV) INFECTION” (INSERM (INSTITUT NATIONAL DE LA SANTÉ ET DE LA RECHERCHE …, priority 2018, published 2021).

What was measured:
HIV-1 = details: cited from earlier work
HBV genotype C = assay: Anti-HBV properties in persistently infected dHepaRG cells, genotype C; format: cell-based, Hepatitis B virus; details: 10 microM three times
Protocol: FIG. 1. Experimental outlines. Treatment schemes: (a) Treatments in pre-infection: dHepaRG cells were treated for 24 h (at day −1) with 100 nM of PreS1 peptide (PreS1-pep) or 10 μM of 1C8, or untreated (NT). At day 0, cells were inoculated with HBV (MOI=250) or with HDV (MOI=25) in the presence of drugs for 24 h. For the tenofovir control (TDF at 10 μM), cells were treated at day 1 and 4 post-infection. Supernatant and cells were harvested at day 7 post-infection. (b) Treatments in post-infection: dHepaRG cells were inoculated with HBV (MOI=250) or with HDV (MOI=25). At days 4, 7 and 9 post infection, cells were treated with TDF 10 μM, lamivudine (3TC) at 10 μM, 1C8 10 μM or untreated (NT). […]
FIG. 6. […] B) HBs and HBe secreted antigens in supernatant were quantified by ELISA, whereas HBV DNA contained in virions was quantified by qPCR after viral nucleic acid extraction from supernatant. […] Statistics were done by two-tailed Mann-Whitney test, with following significativity: *P<0.05, **P<0.01, ***P<0.001, ****P<0.0001. nd=not determined. […]
(§1) From cell culture supernatants, secreted HBe and HBs antigens were quantified by ELISA, using a chemiluminescence immunoassay kit (Autobio, China) following manufacturer's instructions. […]
A HBV standard was used for quantification of extracellular viral DNA and RNA. […] CccDNA was normalized to β-Globin quantification. […]

SRSF1 = SRSF1 (Homo sapiens, UniProt Q07955); details: cited from earlier work
HDV genotype 1 = assay: Establishment of HDV infection in dHepaRG (treatment 24 h before and during inoculation); format: cell-based, hepatitis delta virus; details: 1C8 10 microM, Entry Inh. 100 nM
Protocol: (§2) FIG. 1. Experimental outlines. Treatment schemes: (a) Treatments in pre-infection: dHepaRG cells were treated for 24 h (at day −1) with 100 nM of PreS1 peptide (PreS1-pep) or 10 μM of 1C8, or untreated (NT). At day 0, cells were inoculated with HBV (MOI=250) or with HDV (MOI=25) in the presence of drugs for 24 h. For the tenofovir control (TDF at 10 μM), cells were treated at day 1 and 4 post-infection. Supernatant and cells were harvested at day 7 post-infection. (b) Treatments in post-infection: dHepaRG cells were inoculated with HBV (MOI=250) or with HDV (MOI=25). At days 4, 7 and 9 post infection, cells were treated with TDF 10 μM, lamivudine (3TC) at 10 μM, 1C8 10 μM or untreated (NT). Supernatant and cells were harvested at day 11 postinfection.
(§3) FIG. 7. Effect of 1C8 on de novo establishment of ccDNA in dHepaRG (genotype D). […] B) HBs and HBe secreted antigens in supernatant were quantiUied by ELISA, whereas HBV DNA contained in virions was quantified by qPCR after viral nucleic acid extraction from supernatant. […] Statistics were done by two-tailed Mann-Whitney test, with following signiUicativity: *P<0.05, **P<0.01, ***P<0.001, ****P<0.0001. nd=not determined.

HBV genotype D = assay: De novo establishment of HBV infection/cccDNA in naive dHepaRG, genotype D (treatment before and during inoculation); format: cell-based, Hepatitis B virus
Protocol: as §2, §3
Human liver progenitor HepaRG cells were cultured in Williams medium (ThermoFisher) supplemented with 10% of FBS (Perbio), Penicillin/Streptomycin (500 U/mL), glutamine (2 mM), hydrocortisone Upjohn (2.5 mg/L; Serb laboratory), insulin (5 mg/L; Sigma Aldrich). […] The multiplicity of infection (MOI; expressed as virus genome equivalent/cell) is indicated in the figure legends, but was of 100 vge/cell if not precised.
as §1
A HBV standard was used for quantification of extracellular viral DNA and RNA. For cccDNA quantification total DNA was digested by T5 exonuclease (New England Biolabs) for 6 hours at 37° C. then submitted to qPCR using Taqman Fast Advanced Master Mix (Life Technologies). […]

Chain of SRSF1 (Q07955 whole entry, species assumed): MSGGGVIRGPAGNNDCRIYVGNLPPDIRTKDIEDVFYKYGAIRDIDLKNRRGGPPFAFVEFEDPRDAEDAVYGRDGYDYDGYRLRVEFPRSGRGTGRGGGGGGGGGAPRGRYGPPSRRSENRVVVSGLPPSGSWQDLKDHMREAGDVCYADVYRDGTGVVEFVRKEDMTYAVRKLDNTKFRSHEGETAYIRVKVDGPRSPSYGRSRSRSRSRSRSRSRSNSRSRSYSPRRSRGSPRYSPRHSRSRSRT

## Cn1ccc(=O)c(C(=O)Nc2nsc3ccc([N+](=O)[O-])cc23)c1 [1C8, 4-pyridinonebenzisothiazole carboxamide]
HIV-1
  inhibition of HIV-1 replication: strong inhibitor
HBV genotype C
  antiviral properties against genotype C virus: retained antiviral properties against this strain, although with a slightly reduced efficacy
SRSF1
  inhibition of SRSF1: does not inhibit
HDV genotype 1
  block of the establishment of HDV infections: unable to block
HBV genotype D; Hepatitis B virus, dHepaRG treated before and during HBV inoculation, 10 microM
  inhibition at 10 µM: 50%
HBV genotype D; dHepaRG treated before and during inoculation, 10 microM
  other viral markers (intracellular RNAs, HBeAg, HBsAg), genotype D: also reduced
HBV genotype D; dHepaRG treated before and during inoculation, 1C8 and TDF 10 microM, Entry Inh. 100 nM, stated for genotypes D and C together
  inhibition of cccDNA establishment compared with controls (entry inhibitor, TDF): lower than that obtained with an entry inhibitor, but higher than that obtained with a NUC
